Measurements published in patent US20260048047A1, “SMALL-MOLECULE ACTIVATORS OF MYCOBACTERIUM TUBERCULOSIS ADENYLYL CYCLASE” (priority 2022, published 2026).

tested on: M. tuberculosis; experiment: Extracellular activity against M. tuberculosis in cholesterol media (Alamar Blue reduction assay); assay type: cell-based, Mycobacterium tuberculosis; details: Mycobacterium tuberculosis, 240 h, 7H12-Cholesterol media, 10 days; read-out: Cholesterol broth: alamar blue--EC50

Which EC50 does the source give for Cc1noc(CC(=O)N2CCC(c3nc(C4CC4(C)C)no3)CC2)n1 (stereo not drawn) [Compound 28, 1-(4-(3-(2,2-dimethylcyclopropyl)-1,2,4-oxadiazol-5-yl)piperidin-1-yl)-2-(3-methyl-1,2,4-oxadiazol-5-yl)ethan-1-one] here?
Its EC50 is greater than 25 µM.

With Cc1noc(CC(=O)N2CCC(c3nc(C4CCC(F)(F)CC4)no3)CC2)n1 [Compound 41, 1-(4-(3-(4,4-difluorocyclohexyl)-1,2,4-oxadiazol-5-yl)piperidin-1-yl)-2-(3-methyl-1,2,4-oxadiazol-5-yl)ethan-1-one] as the compound, how does the EC50 read?
The EC50 was greater than 10 µM.

How did the EC50 turn out when Cn1ncnc1CC(=O)N1C[C@H]2C[C@@H](C1)[C@@H]2c1nc(-c2ccc(Cl)c(Cl)c2)no1 [Compound 217, 1-((1R,5S,6r)-6-(3-(3,4-dichlorophenyl)-1,2,4-oxadiazol-5-yl)-3-azabicyclo[3.1.1]heptan-3-yl)-2-(1-methyl-1H-1,2,4-triazol-5-yl)ethan-1-one] was run?
Its EC50 is 0.1 µM.

For Cc1nonc1CC(=O)N1CCN(c2nc(-c3ccc(Cl)c(Cl)c3)no2)CC1 [Compound 235, 1-(4-(3-(3,4-dichlorophenyl)-1,2,4-oxadiazol-5-yl)piperazin-1-yl)-2-(4-methyl-1,2,5-oxadiazol-3-yl)ethan-1-one], which EC50 is on record?
Its EC50 is 0.27 µM.

For Cc1nonc1CC(=O)N1CCC(c2nc(-c3ccc(Cl)cc3)no2)CC1 [Compound 98, 1-(4-(3-(4-chlorophenyl)-1,2,4-oxadiazol-5-yl)piperidin-1-yl)-2-(4-methyl-1,2,5-oxadiazol-3-yl)ethan-1-one], which EC50 is on record?
The EC50 was 0.114 µM.

How did the EC50 turn out when Cc1noc(CC(=O)N2CCC(n3nnc(-c4ccc(F)cc4)n3)CC2)n1 [Compound 51, 1-(4-(5-(4-fluorophenyl)-2H-tetrazol-2-yl)piperidin-1-yl)-2-(3-methyl-1,2,4-oxadiazol-5-yl)ethan-1-one] was run?
The EC50 was 7.64 µM.

With Cc1nonc1CC(=O)N1CCCC(n2nnc(-c3ccc(F)cc3)n2)C1 (stereo not drawn) [Compound 248, 1-(3-(5-(4-fluorophenyl)-2H-tetrazol-2-yl)piperidin-1-yl)-2-(4-methyl-1,2,5-oxadiazol-3-yl)ethan-1-one] as the compound, how does the EC50 read?
Its EC50 is greater than 10 µM.

Which EC50 does the source give for Cc1noc(CC(=O)N2CC3CC(C2)C3n2nnc(-c3ccc(F)cc3)n2)n1 (stereo not drawn) [Compound 242, 1-(6-(5-(4-fluorophenyl)-2H-tetrazol-2-yl)-3-azabicyclo[3.1.1]heptan-3-yl)-2-(3-methyl-1,2,4-oxadiazol-5-yl)ethan-1-one] here?
Its EC50 is greater than 25 µM.

How did the EC50 turn out when COCc1noc(C2CCN(C(=O)Cc3nonc3C)CC2)n1 [Compound 92, 1-(4-(3-(methoxymethyl)-1,2,4-oxadiazol-5-yl)piperidin-1-yl)-2-(4-methyl-1,2,5-oxadiazol-3-yl)ethan-1-one] was run?
Its EC50 is greater than 10 µM.

With Cc1nonc1NC(=O)C1CCC(c2nc(-c3ccc(F)cc3)no2)CC1 (stereo not drawn) [Compound 251, 4-(3-(4-fluorophenyl)-1,2,4-oxadiazol-5-yl)-N-(4-methyl-1,2,5-oxadiazol-3-yl)cyclohexane-1-carboxamide] as the compound, how does the EC50 read?
Its EC50 is greater than 10 µM.

With Cn1cnnc1CC(=O)N1CCC(c2nc(-c3ccc(F)cc3)no2)CC1 [Compound 155, 1-(4-(3-(4-fluorophenyl)-1,2,4-oxadiazol-5-yl)piperidin-1-yl)-2-(4-methyl-4H-1,2,4-triazol-3-yl)ethan-1-one] as the compound, how does the EC50 read?
Its EC50 is greater than 10 µM.

Cc1nonc1CC(=O)N1CC2CC1CC2c1nc(C2CCC(F)C2)no1 (stereo not drawn) [Compound 197, 1-(5-(3-(3-fluorocyclopentyl)-1,2,4-oxadiazol-5-yl)-2-azabicyclo[2.2.1]heptan-2-yl)-2-(4-methyl-1,2,5-oxadiazol-3-yl)ethan-1-one] was tested. Which EC50 did it give?
Its EC50 is 15.5 µM.

For Cc1cncnc1CC(=O)N1CCC(c2nc(C3CCCCC3)no2)CC1 [Compound 7, 1-(4-(3-cyclohexyl-1,2,4-oxadiazol-5-yl)piperidin-1-yl)-2-(5-methylpyrimidin-4-yl)ethan-1-one], which EC50 is on record?
Its EC50 is greater than 25 µM.

Cc1conc1CC(=O)N1CCC(c2nc(-c3ccc(Cl)c(Cl)c3)no2)CC1 [Compound 10, 1-(4-(3-(3,4-dichlorophenyl)-1,2,4-oxadiazol-5-yl)piperidin-1-yl)-2-(4-methylisoxazol-3-yl)ethan-1-one] was tested. Which EC50 did it give?
Its EC50 is 0.284 µM.

With Cn1ncnc1CC(=O)N1CCC(c2nc(-c3ccc(F)c(F)c3)no2)CC1 [Compound 184, 1-(4-(3-(3,4-difluorophenyl)-1,2,4-oxadiazol-5-yl)piperidin-1-yl)-2-(1-methyl-1H-1,2,4-triazol-5-yl)ethan-1-one] as the compound, how does the EC50 read?
Its EC50 is 0.458 µM.

Cc1nonc1CC(=O)N1CC2CC(C1)C2c1nc(C2CCC(C)(F)CC2)no1 (stereo not drawn) [Compound 211, 1-(6-(3-(4-fluoro-4-methylcyclohexyl)-1,2,4-oxadiazol-5-yl)-3-azabicyclo[3.1.1]heptan-3-yl)-2-(4-methyl-1,2,5-oxadiazol-3-yl)ethan-1-one] was tested. Which EC50 did it give?
The EC50 was 3.76 µM.

For Cc1nonc1CC(=O)N1CCC(c2nc(-c3cccc(F)c3F)no2)CC1 [Compound 143, 1-(4-(3-(2,3-difluorophenyl)-1,2,4-oxadiazol-5-yl)piperidin-1-yl)-2-(4-methyl-1,2,5-oxadiazol-3-yl)ethan-1-one], which EC50 is on record?
The EC50 was 1.2 µM.

How did the EC50 turn out when Cc1noc(CC(=O)N2CCC(c3nc(C4CCC(C)(C)C4)no3)CC2)n1 (stereo not drawn) [Compound 29, 1-(4-(3-(3,3-dimethylcyclopentyl)-1,2,4-oxadiazol-5-yl)piperidin-1-yl)-2-(3-methyl-1,2,4-oxadiazol-5-yl)ethan-1-one] was run?
Its EC50 is 3.73 µM.

How did the EC50 turn out when Cc1cncnc1CC(=O)N1CCC(c2nc(-c3ccc(F)cc3)no2)CC1 [Compound 9, 1-(4-(3-(4-fluorophenyl)-1,2,4-oxadiazol-5-yl)piperidin-1-yl)-2-(5-methylpyrimidin-4-yl)ethan-1-one] was run?
Its EC50 is 3.68 µM.

Cc1nonc1CC(=O)N1CCC(c2nc(-c3ccccc3OC(F)(F)F)no2)CC1 [Compound 104, 2-(4-methyl-1,2,5-oxadiazol-3-yl)-1-(4-(3-(2-(trifluoromethoxy)phenyl)-1,2,4-oxadiazol-5-yl)piperidin-1-yl)ethan-1-one] was tested. Which EC50 did it give?
Its EC50 is 2.96 µM.

Which EC50 does the source give for Cc1nc(CC(=O)N2CCC(c3nc(-c4ccc(F)cc4)no3)CC2)no1 [Compound 12, 1-(4-(3-(4-fluorophenyl)-1,2,4-oxadiazol-5-yl)piperidin-1-yl)-2-(5-methyl-1,2,4-oxadiazol-3-yl)ethan-1-one] here?
Its EC50 is greater than 10 µM.

Which EC50 does the source give for Cc1nonc1CC(=O)N1CCC(c2nc(C3CCC(C)(C)C3)no2)CC1 (stereo not drawn) [Compound 87, 1-(4-(3-(3,3-dimethylcyclopentyl)-1,2,4-oxadiazol-5-yl)piperidin-1-yl)-2-(4-methyl-1,2,5-oxadiazol-3-yl)ethan-1-one] here?
The EC50 was 0.249 µM.

With Cc1nonc1CC(=O)N1CCC(c2nc(C3CCCC3)no2)CC1 [Compound 70, 1-(4-(3-cyclopentyl-1,2,4-oxadiazol-5-yl)piperidin-1-yl)-2-(4-methyl-1,2,5-oxadiazol-3-yl)ethan-1-one] as the compound, how does the EC50 read?
The EC50 was 3.68 µM.

Cc1noc(CC(=O)N2CCC3(CCC3c3nc(-c4ccc(F)cc4)no3)CC2)n1 (stereo not drawn) [Compound 240, 1-(1-(3-(4-fluorophenyl)-1,2,4-oxadiazol-5-yl)-7-azaspiro[3.5]nonan-7-yl)-2-(3-methyl-1,2,4-oxadiazol-5-yl)ethan-1-one] was tested. Which EC50 did it give?
The EC50 was greater than 10 µM.

Cc1nonc1CC(=O)N1CC2CC1CC2c1nc(-c2ccc(Cl)c(Cl)c2)no1 (stereo not drawn) [Compound 195, 1-(5-(3-(3,4-dichlorophenyl)-1,2,4-oxadiazol-5-yl)-2-azabicyclo[2.2.1]heptan-2-yl)-2-(4-methyl-1,2,5-oxadiazol-3-yl)ethan-1-one] was tested. Which EC50 did it give?
Its EC50 is 0.094 µM.

Which EC50 does the source give for Cc1nonc1CC(=O)N1CC2CC(C1)C2c1nc(-c2ccc(Cl)c(Cl)c2)no1 (stereo not drawn) [Compound 212, 1-(6-(3-(3,4-dichlorophenyl)-1,2,4-oxadiazol-5-yl)-3-azabicyclo[3.1.1]heptan-3-yl)-2-(4-methyl-1,2,5-oxadiazol-3-yl)ethan-1-one] here?
The EC50 was 5.01 µM.

With Cc1nonc1CC(=O)N1CCC(c2nc(-c3ccc(F)c(C(F)(F)F)c3)no2)CC1 [Compound 124] as the compound, how does the EC50 read?
Its EC50 is 0.334 µM.

Cc1noc(CC(=O)N2CC3CC2CC3c2nc(C3CCCCC3)no2)n1 (stereo not drawn) [Compound 189, 1-(5-(3-cyclohexyl-1,2,4-oxadiazol-5-yl)-2-azabicyclo[2.2.1]heptan-2-yl)-2-(3-methyl-1,2,4-oxadiazol-5-yl)ethan-1-one] was tested. Which EC50 did it give?
Its EC50 is greater than 10 µM.

Cn1nnnc1CC(=O)N1CCC(c2nc(-c3ccc(F)cc3)no2)CC1 [Compound 188, 1-(4-(3-(4-fluorophenyl)-1,2,4-oxadiazol-5-yl)piperidin-1-yl)-2-(1-methyl-1H-tetrazol-5-yl)ethan-1-one] was tested. Which EC50 did it give?
Its EC50 is 6.33 µM.

How did the EC50 turn out when Cc1nonc1CC(=O)N1CCC(c2nc(C3CCCCC3)no2)CC1 [Compound 73, 1-(4-(3-cyclohexyl-1,2,4-oxadiazol-5-yl)piperidin-1-yl)-2-(4-methyl-1,2,5-oxadiazol-3-yl)ethan-1-one] was run?
The EC50 was 0.674 µM.

Cc1nonc1CC(=O)N1CCC(c2nc(-c3ccc(F)c(OC(F)(F)F)c3)no2)CC1 [Compound 125] was tested. Which EC50 did it give?
Its EC50 is 0.288 µM.

How did the EC50 turn out when Cc1noc(CC(=O)N2CCC(c3nc(C4C[C@@H](C)C[C@@H](C)C4)no3)CC2)n1 (stereo partly drawn) [Compound 31, 1-(4-(3-((3R,5S)-3,5-dimethylcyclohexyl)-1,2,4-oxadiazol-5-yl)piperidin-1-yl)-2-(3-methyl-1,2,4-oxadiazol-5-yl)ethan-1-one] was run?
The EC50 was greater than 25 µM.

For Cn1ncnc1CC(=O)N1CCC(c2nc(-c3ccc(F)cc3)no2)CC1 [Compound 186, 1-(4-(3-(4-fluorophenyl)-1,2,4-oxadiazol-5-yl)piperidin-1-yl)-2-(1-methyl-1H-1,2,4-triazol-5-yl)ethan-1-one], which EC50 is on record?
Its EC50 is 0.48 µM.

For Cc1nonc1CC(=O)N1CCC(c2noc(C34CCC(CC3)C4)n2)CC1 [Compound 77, 1-(4-(5-(bicyclo[2.2.1]heptan-1-yl)-1,2,4-oxadiazol-3-yl)piperidin-1-yl)-2-(4-methyl-1,2,5-oxadiazol-3-yl)ethan-1-one], which EC50 is on record?
The EC50 was greater than 25 µM.

With Cc1noc(CC(=O)N2CCC(c3nc(-c4cccc(Cl)c4)no3)CC2)n1 [Compound 36, 1-(4-(3-(3-chlorophenyl)-1,2,4-oxadiazol-5-yl)piperidin-1-yl)-2-(3-methyl-1,2,4-oxadiazol-5-yl)ethan-1-one] as the compound, how does the EC50 read?
Its EC50 is 1.63 µM.

For Cc1noc(CC(=O)N2CCC3(CC2)CC(c2nc(C4CCCCC4)no2)C3)n1 [Compound 225, 1-(2-(3-cyclohexyl-1,2,4-oxadiazol-5-yl)-7-azaspiro[3.5]nonan-7-yl)-2-(3-methyl-1,2,4-oxadiazol-5-yl)ethan-1-one], which EC50 is on record?
The EC50 was greater than 10 µM.
